System: men with mild to moderate persistent asthma (lung function, FEV1)
Assay: Clinical Phase II cross-over study: FEV1 by spirometry after single inhaled doses in asthma patients
Format: in vivo, human
Conditions: for Peak FEV1 / Peak FEV1 increase over baseline / Peak FEV1 increase over placebo / Trough FEV1 / Trough FEV1 increase over baseline / Trough FEV1 increase over placebo: average, compound single dose 25 mcg, salmeterol 50 mcg at 0 and 12 hours; for Peak FEV1: inhalation by dry powder inhaler; for Peak FEV1 increase over baseline / Peak FEV1 increase over placebo / Trough FEV1 / Trough FEV1 increase over baseline / Trough FEV1 increase over placebo: inhalation
Excerpt: Clinical Phase II study: A randomised double-blind, double-dummy, placebo and active comparator-controlled, cross-over trial assesses the activity, safety, tolerability and pharmacokinetics of single doses of 5-(2-{[6-(2,2-difluoro-2-phenylethoxy)hexyl]amino}-1-(R)-hydroxyethyl)-8-hydroxyquinolin-2(1H)-one heminapadisylate by inhalation in asthma patients.
Methods: Men with a diagnosis of mild to moderate persistent asthma, as defined by the 2006 GINA guideline, for at least 6 months prior to screening and with a FEV1 61-85% of the predicted normal values (according to Quanjer et al. 1993) were randomised to treatment sequences comprising a single-dose administration of 5-(2-{[6-(2,2-difluoro-2-phenylethoxy)hexyl]amino}-1-(R)-hydroxyethyl)-8-hydroxyquinolin-2(1H)-one heminapadisylate (at a metered nominal dose of 25 micrograms in the Cyclohaler® device), two administrations (at time points 0 and 12 hours) of Salmeterol (at a metered nominal dose of 50 micrograms in the Cyclohaler® device) and placebo administered all of them by means of a dry powder inhaler. Lung function measurements included (by spirometry) FEV1, PEF, FVC, FEF25-75, and (by body plethysmography) sGaw and Raw.
Results: 25 males (aged 18 to 70) took part in the study.

[1] = 25 micrograms single inhaled dose

SMILES	average peak and trough FEV1 compared with placebo and with salmeterol [1]	increase in average trough FEV1 compared to salmeterol (two doses) [1]	Peak FEV1 [L]	Peak FEV1 increase over baseline [mL]	Peak FEV1 increase over placebo [mL]	Trough FEV1 [L]	Trough FEV1 increase over baseline [mL]	Trough FEV1 increase over placebo [mL]	FEV1 values compared with salmeterol (single dose 25 micrograms)	bronchodilation: size, duration and onset (single dose 25 micrograms)
O=c1ccc2c([C@@H](O)CNCCCCCCOCC(F)(F)c3ccccc3)ccc(O)c2[nH]1 [5-(2-{[6-(2,2-difluoro-2-phenylethoxy)hexyl]amino}-1-(R)-hydroxyethyl)-8-hydroxyquinolin-2(1H)-one]	clearly increased	statistically significant	3.819	843	618	3.642	666	718	significantly higher than those produced by salmeterol	surprisingly large, long-lasting bronchodilation, with a fast onset
OCc1cc(C(O)CNCCCCCCOCCCCc2ccccc2)ccc1O (stereo not shown) [Salmeterol, 2-(hydroxymethyl)-4-{1-hydroxy-2-[6-(4-phenylbutoxy)hexylamino]ethyl}phenol, reference compound]	–	–	3.521	667	442	3.209	355	285	–	–
